Test results published in BindingDB's records for doi:10.1021/acs.jmedchem.2c01800 (China Pharmaceutical University, 2023).

Assays:
[1] = target: T1, Signal transducer and activator of transcription 3 (Homo sapiens, UniProt P40763); assay: Inhibition of IL-23 induced STAT3 phosphorylation in human KIT225 cells by AlphaLISA assay
[2] = target: T1, Signal transducer and activator of transcription 3; assay: Inhibition of IL-6 induced STAT3 phosphorylation in human TF-1 cells by AlphaLISA assay
[3] = target: T1, Signal transducer and activator of transcription 3; assay: Inhibition of IL-23 induced STAT3 phosphorylation in human Jurkat cells incubated for 30 mins by microplate reader analysis

T1 sequence (P40763 whole entry): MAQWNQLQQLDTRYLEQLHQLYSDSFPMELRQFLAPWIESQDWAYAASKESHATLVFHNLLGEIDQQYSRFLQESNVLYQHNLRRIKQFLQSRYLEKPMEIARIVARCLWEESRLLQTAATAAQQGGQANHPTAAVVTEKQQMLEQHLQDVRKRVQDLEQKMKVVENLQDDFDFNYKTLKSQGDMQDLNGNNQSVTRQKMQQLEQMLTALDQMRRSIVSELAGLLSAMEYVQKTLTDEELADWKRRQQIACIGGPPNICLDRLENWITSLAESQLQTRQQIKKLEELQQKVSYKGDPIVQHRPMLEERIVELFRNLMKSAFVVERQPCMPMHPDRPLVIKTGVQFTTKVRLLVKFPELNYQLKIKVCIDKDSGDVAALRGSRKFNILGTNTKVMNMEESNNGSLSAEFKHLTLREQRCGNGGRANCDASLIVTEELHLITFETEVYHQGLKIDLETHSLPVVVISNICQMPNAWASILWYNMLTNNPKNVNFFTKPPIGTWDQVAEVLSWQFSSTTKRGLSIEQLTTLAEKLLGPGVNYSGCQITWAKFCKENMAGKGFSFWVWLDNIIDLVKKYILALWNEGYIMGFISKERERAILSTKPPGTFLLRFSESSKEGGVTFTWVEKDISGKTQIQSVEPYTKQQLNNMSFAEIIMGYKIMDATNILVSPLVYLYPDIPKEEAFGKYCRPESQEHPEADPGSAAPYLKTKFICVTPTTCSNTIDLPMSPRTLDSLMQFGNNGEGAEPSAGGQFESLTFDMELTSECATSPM

SMILES | IC50 [1] | IC50 [2] | IC50 [3]
[2H]C([2H])([2H])NC(=O)c1nnc(Nc2ccc(N3CC(O)C3)cn2)cc1Nc1cccc(-c2ncn(C)n2)c1OC | 5.9 nM | – | –
CCOc1cccc(Nc2cc(NC)n3ncc(C(=O)N[C@@H]4CCN(C)C4=O)c3n2)n1 | 29 nM | – | –
CNc1cc(Nc2ccccc2OC)nc2c(C(=O)N[C@@H]3CCN(C)C3=O)cnn12 | 9 nM | – | –
CNC(=O)c1nnc(NC(=O)N2CCC2)cc1Nc1cccc(-c2ncn(C)n2)c1OC [US11053219, Example 28] | 28 nM | 5900 nM | –
CNc1cc(Nc2cccn(-c3ccccn3)c2=O)nc2c(C(=O)N[C@@H]3CCN(C)C3=O)cnn12 | 65 nM | – | –
[2H]C([2H])([2H])NC(=O)c1nnc(NC(=O)C2CC2)cc1Nc1cccc(-c2ncc(-c3cccnc3C(F)(F)F)cn2)c1OC | – | – | 2.4 nM
